The target of experiment [1] is human E3 ligase component cereblon (CRBN) (Homo sapiens (Human), UniProt Q96SW2). As to the kind of experiment: Cereblon (CRBN) target engagement, NanoBRET TE Intracellular E3 Ligase Assay in transfected HEK-293T cells. The settings on record: read-out: CRBN Binding EC50. As for the experimental part:
HEK293T cells were harvested ca. 75% confluent with trypsin and plated (500,000 cells/well) in a 6-well tissue culture plate in 2 mL of Dulbecco's Modified Eagle Medium (DMEM)+10% Fetal Bovine Serum (FBS) and incubated overnight at 37° C.
The NanoLuc-CRBN fusion vector (Nluc-CRBN; Promega) contains the coding region of human E3 ligase component cereblon (CRBN) fused to the C-terminus of the NanoLuc luciferase coding region. A mixture of 10 ng Nluc-CRBN and 990 ng DDB1 Expression Vector (Promega) was added to 125 μL Opti-Minimum Essential Medium (Opti-MEM™; Thermo Fisher) along with 2 μL P3000 reagent (Thermo Fisher) in a 1.5 mL epppendorf tube. This solution was added to Lipofectamine 3000 transfection reagent (5 μL; Thermo Fisher) in Opti-MEM (125 μL), mixed well, and incubated for 15 minutes at room temperature. The transfection mixture was added dropwise to cells and incubated overnight at 37° ° C., 5% CO2. Following transfection, cells were washed once with PBS, and trypsin (250 μL) was added and incubated 30-45 sec to dislodge cells. Complete media (2 mL) was added to resuspend cells to form a single cell suspension. Cells were centrifuged at 320×g for 5 min at room temperature, the supernatant was removed, and the cell pellet resuspended in Opti-MEM (3 mL; wash step repeated×2). After final resuspension in 5 mL Opti-MEM, cells were counted and resuspended at 200,000 cells/mL in Opti-MEM.
Cereblon target engagement was monitored by Bioluminescence Resonance Energy Transfer (BRET) in transfected HEK-293T cells using the NanoBRET TE Intracellular E3 Ligase Assay (Promega). Briefly, 384-well plates (white opaque plates, Corning 3574, low binding surface) were seeded with transfected HEK-293T cells (38 μL/well). 2 μL of 10 μM CRBN tracer (diluted 1:5 in Tracer Dilution Buffer) was added to each well. Plates were centrifuged at 320×g for 1 min at room temperature. Test compounds were added in a 11-point dilution series (typically 10 μM to […]) using a TECAN D300e Digital Dispenser. Plates were shaken for 2 minutes on a microplate shaker to mix compounds. Plates were centrifuged at 320×g for 1 min at room temperature, and subsequently incubated for 2 hours at 37° C.
After incubation, plates were allowed to cool to room temperature for 15 minutes. 20 μL of 3× Complete NanoBRET™ Nano-Glo® Substrate plus Inhibitor Solution (Promega, 1:166 Substrate and 1:500 dilution of Extracellular NanoLuc® Inhibitor diluted in Opti-MEM) were added to each well. Plates were incubated with shaking at room temperature for 3 minutes covered with foil. Plates were read on a CLARIOstar microplate reader (BMG LabTech), measuring at 450 nm (donor emission) and 610 nm (acceptor emission). The IC50 values were determined by regression to best fit four-parameter logistic curves using GraphPad Prism.
(In BRET a luciferase serves as donor, and the signal depends on an acceptor being close.)

For experiment [2], the system named is IKZF2 (Helios). As to the kind of experiment: IKZF2 reporter degradation assay (HEK 293T IKZF2-mNeonGreen reporter cell line). Type of experiment: cell-based, human. As to conditions: 1 μM compound, 24 hour incubation, HEK 293T IKZF2-mNeonGreen reporter. From the text: Polycistronic plasmids were constructed for the mammalian expression of fluorescent reporter fusions of human transcription factors IKZF1 (Ikaros), IKZF2 (Helios), and IKZF3 (Aiolos). The respective protein sequences had their C-terminal end joined to a GGGGS linker repeated three times followed by mNeonGreen, P2A sequence, and mScarlet. The DNA sequences of the open reading frames are as follows:
IKZF1, IKZF2, and IKZF3 constructs were cloned into the UCOE Hygromycin expression vectors (Millipore Sigma). Reporter constructs were transfected using cationic lipid reagents into adherent HEK 293T cells and stable integrants were selected by treatment with 200 μg/mL hygromycin B. Clonal populations were obtained from the population of stable integrants either by limiting dilution or fluorescence activated cell sorting.
The clonal stable cell lines were maintained under constant 200 μg/mL hygromycin B selection while being passaged for use in the degradation assays. […] The fluorescence intensity of the IKZF1/2/3-mNeonGreen (FITC channel) and mScarlet (PE channel) reporters were routinely analyzed by flow cytometry to confirm consistent expression levels between experiments.
The IKZF1/IKZF2/IKZF3 degradation assays were carried out by harvesting the HEK 293T reporter cell lines and resuspending the cells in media formulated for reduced background fluorescence (FluoroBrite; Thermo Fisher). The respective cell lines were seeded at a density of 4000 cells/well into black-walled 384-well optical grade assay tissue culture plates. The cells were incubated overnight at 37° C. to allow for attachment to the assay plate. Dilutions of the compounds were prepared in DMSO from 10 mM compound stocks. The assay plates were treated with appropriate concentrations of the compounds by dispensing the DMSO dilutions in quadruplicate wells with an upper limit of 0.5% final DMSO.
After 24 hour incubation with the compounds, the assay plates were imaged on an ImageXpress Pico microscopy system (cells maintained at 37° C. during imaging) to obtain the fluorescent readouts. The assay plates were imaged in the FITC and Tetramethylrhodamine (TRITC) channels to obtain the mNeonGreen fluorescence intensity (reporter degradation data) and mScarlet fluorescence intensity (for cell segmentation). 293T-IKZF1 and 293T-IKZF3 reporter cell lines were imaged with exposures of 500 milliseconds (ms) for both FITC and TRITC channels, while the 293T-IKZF2 reporter cell line was imaged with exposures of 1000 ms for FITC and 1250 ms for TRITC. The resulting data was analyzed with Cell Reporter Xpress software using the 2-channel cell scoring analysis with a “percent positive” readout. The TRITC channel was selected for the “nuclei” segmentation with a threshold of 20 while the FITC channel was selected for the “Marker 1” segmentation and a threshold of 100 for the IKZF1 and IKZF3 reporter lines. […] The minimum segmentation width was set to 6 micrometers and the maximum segmentation width was set to 15 micrometers for all cell lines. The DCs calculations were determined by regression to best fit four-parameter logistic curves using GraphPad Prism.

Some results are limits rather than exact numbers.

The term EC50 denotes the concentration giving half of the maximal effect.

human E3 ligase component cereblon (CRBN), sequence (Q96SW2 whole entry): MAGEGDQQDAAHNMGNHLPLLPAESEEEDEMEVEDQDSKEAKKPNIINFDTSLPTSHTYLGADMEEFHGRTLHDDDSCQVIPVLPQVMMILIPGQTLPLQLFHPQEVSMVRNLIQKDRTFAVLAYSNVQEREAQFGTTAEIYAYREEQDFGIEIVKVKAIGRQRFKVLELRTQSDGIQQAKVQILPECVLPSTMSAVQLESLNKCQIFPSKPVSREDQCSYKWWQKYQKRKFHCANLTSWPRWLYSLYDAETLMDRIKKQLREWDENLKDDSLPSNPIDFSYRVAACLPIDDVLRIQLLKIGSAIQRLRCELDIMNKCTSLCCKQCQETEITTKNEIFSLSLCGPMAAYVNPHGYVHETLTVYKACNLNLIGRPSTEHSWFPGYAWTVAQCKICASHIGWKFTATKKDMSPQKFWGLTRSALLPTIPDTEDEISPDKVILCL
human E3 ligase component cereblon (CRBN), sequence (Q16531 whole entry partner): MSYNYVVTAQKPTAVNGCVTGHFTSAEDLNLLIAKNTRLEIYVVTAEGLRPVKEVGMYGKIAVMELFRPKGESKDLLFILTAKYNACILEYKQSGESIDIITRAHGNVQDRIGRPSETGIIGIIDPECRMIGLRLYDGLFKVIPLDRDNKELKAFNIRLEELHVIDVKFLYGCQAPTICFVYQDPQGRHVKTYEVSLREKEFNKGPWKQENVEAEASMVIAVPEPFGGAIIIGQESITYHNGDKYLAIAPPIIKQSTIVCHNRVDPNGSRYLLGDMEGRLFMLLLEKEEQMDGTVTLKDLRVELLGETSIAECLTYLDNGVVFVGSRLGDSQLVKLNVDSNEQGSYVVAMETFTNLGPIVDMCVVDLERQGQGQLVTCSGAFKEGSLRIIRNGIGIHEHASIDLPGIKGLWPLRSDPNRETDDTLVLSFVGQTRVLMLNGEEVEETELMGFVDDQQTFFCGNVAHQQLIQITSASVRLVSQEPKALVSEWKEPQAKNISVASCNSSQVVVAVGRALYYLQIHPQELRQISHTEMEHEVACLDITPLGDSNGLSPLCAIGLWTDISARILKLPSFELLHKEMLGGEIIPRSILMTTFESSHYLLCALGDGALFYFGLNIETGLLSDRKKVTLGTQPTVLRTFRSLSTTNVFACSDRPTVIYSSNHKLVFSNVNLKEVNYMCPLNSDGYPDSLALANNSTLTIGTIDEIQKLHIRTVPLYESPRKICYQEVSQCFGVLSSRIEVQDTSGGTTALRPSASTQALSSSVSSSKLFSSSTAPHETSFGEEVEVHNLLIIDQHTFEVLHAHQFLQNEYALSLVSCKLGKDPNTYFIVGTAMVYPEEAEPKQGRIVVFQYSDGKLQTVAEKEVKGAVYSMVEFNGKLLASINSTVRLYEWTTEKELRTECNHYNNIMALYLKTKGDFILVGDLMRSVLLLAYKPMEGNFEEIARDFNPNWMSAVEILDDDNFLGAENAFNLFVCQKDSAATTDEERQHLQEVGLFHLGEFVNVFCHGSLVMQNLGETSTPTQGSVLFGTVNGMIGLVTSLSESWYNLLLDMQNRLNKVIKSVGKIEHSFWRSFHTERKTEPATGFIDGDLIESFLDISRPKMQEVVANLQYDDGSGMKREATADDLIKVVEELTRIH

With `N#Cc1cc(Cl)ccc1C1CN([C@H]2CCCC[C@H]2Oc2ccc3c(c2)CN(C2CCC(=O)NC2=O)C3=O)C1` (stereo partly drawn) [Compound 40, 5-chloro-2-(1-((1S,2R)-2-((2-(2,6-dioxopiperidin-3-yl)-1-oxoisoindolin-5-yl)oxy)cyclohexyl)azetidin-3-yl)benzonitrile], the half-maximal effective concentration (EC50) in experiment [1] was 11 nM. In addition, the “IKZF2 % Degradation @ 1 μM” value in experiment [2] is less than 15%.
Regarding `COc1cccc(C2CN([C@H]3CCCC[C@@H]3Oc3ccc4c(c3)CN(C3CCC(=O)NC3=O)C4=O)C2)c1` (stereo partly drawn) [Compound 126, 3-(5-(((1S,2S)-2-(3-(3-methoxyphenyl)azetidin-1-yl)cyclohexyl)oxy)-1-oxoisoindolin-2-yl)piperidine-2,6-dione], the EC50 in experiment [1] is 5 nM. Besides, the “IKZF2 % Degradation @ 1 μM” value in experiment [2] was 84.3%.
In the same order, the values of `N#Cc1cc(F)ccc1C1CN([C@@H]2CCCC[C@H]2Oc2ccc3c(c2)CN(C2CCC(=O)NC2=O)C3=O)C1` (single isomer, unassigned) [Compound 43] are 42 nM and less than 15%.
With `O=C1CCC(N2Cc3cc(O[C@H]4CCCC[C@H]4N4CC(c5ccccc5)C4)ccc3C2=O)C(=O)N1` (stereo partly drawn) [Compound 128, 3-(1-oxo-5-(((1S,2R)-2-(3-phenylazetidin-1-yl)cyclohexyl)oxy)isoindolin-2-yl)piperidine-2,6-dione], the EC50 in experiment [1] amounted to 18 nM. Further, the “IKZF2 % Degradation @ 1 μM” value in experiment [2] is given as less than 15%.
Consider `O=C1CCC(N2Cc3cc(O[C@H]4CCCC[C@@H]4N4CC(c5ccc(OC(F)(F)F)cc5)C4)ccc3C2=O)C(=O)N1` (mixture of isomers) [Compound 60, Rac-3-(1-oxo-5-(((trans)-2-(3-(4-(trifluoromethoxy)phenyl)azetidin-1-yl)cyclohexyl)oxy)isoindolin-2-yl)piperidine-2,6-dione], for which, in experiment [1], the concentration giving a half-maximal response (EC50) is 15 nM. For the same compound, the “IKZF2 % Degradation @ 1 μM” value in experiment [2] is on record as 84.9%.
As to `N#Cc1cc(Cl)ccc1C1CN([C@@H]2CCCC[C@@H]2Oc2ccc3c(c2)CN(C2CCC(=O)NC2=O)C3=O)C1` (single isomer, unassigned) [Compound 37], the EC50 in experiment [1] stood at 25 nM. Also, in experiment [2], the “IKZF2 % Degradation @ 1 μM” value is reported as less than 15%.
For `N#Cc1cc(Cl)ccc1C1CN([C@H]2CCCC[C@@H]2Oc2ccc3c(c2)CN(C2CCC(=O)NC2=O)C3=O)C1` (single isomer, unassigned) [Compound 39] the same measures were 8 nM and 84.6%.
Regarding `O=C1CCC(N2Cc3cc(O[C@H]4CCC[C@@H]4N4CC(c5ccc(-n6cccn6)cc5)C4)ccc3C2=O)C(=O)N1` (stereo partly drawn) [Compound 73, 3-(5-(((1S,2S)-2-(3-(4-(1H-pyrazol-1-yl)phenyl)azetidin-1-yl)cyclopentyl)oxy)-1-oxoisoindolin-2-yl)piperidine-2,6-dione], the half-maximal effective concentration (EC50) in experiment [1] was 5 nM. Also, the “IKZF2 % Degradation @ 1 μM” value in experiment [2] turned out to be 63.6%.
Turning to `O=C1CCC(N2Cc3cc(O[C@@H]4CCCC[C@@H]4N4CC(c5ccc(OC(F)(F)F)cc5)C4)ccc3C2=O)C(=O)N1` (mixture of isomers) [Compound 61, Rac-3-(1-oxo-5-(((cis)-2-(3-(4-(trifluoromethoxy)phenyl)azetidin-1-yl)cyclohexyl)oxy)isoindolin-2-yl)piperidine-2,6-dione], the half-maximal effective concentration (EC50) in experiment [1] was 14 nM. Moreover, the “IKZF2 % Degradation @ 1 μM” value in experiment [2] was 36.3%.
In the case of `O=C1CCC(N2Cc3cc(O[C@@H]4CCCC[C@H]4N4CCC4c4ccccc4)ccc3C2=O)C(=O)N1` (stereo partly drawn) [Compound 54, 3-(1-oxo-5-(((1R,2R)-2-(2-phenylazetidin-1-yl)cyclohexyl)oxy)isoindolin-2-yl)piperidine-2,6-dione], the concentration giving a half-maximal response (EC50) in experiment [1] is 89 nM. Further, in experiment [2], the “IKZF2 % Degradation @ 1 μM” value is given as less than 15%.
For `N#Cc1ccc(C2CN([C@@H]3CCCC[C@@H]3Oc3ccc4c(c3)CN(C3CCC(=O)NC3=O)C4=O)C2)cc1F` (mixture of isomers) [Compound 122, rac-4-(1-((cis)-2-((2-(2,6-dioxopiperidin-3-yl)-1-oxoisoindolin-5-yl)oxy)cyclohexyl)azetidin-3-yl)-2-fluorobenzonitrile], the EC50 in experiment [1] is 20 nM. Also, in experiment [2], the “IKZF2 % Degradation @ 1 μM” value is recorded as less than 15%.
On to `O=C1CCC(N2Cc3cc(OC4CCCCC4N4CC(c5ccccc5OC(F)(F)F)C4)ccc3C2=O)C(=O)N1` (centres unmarked) [Compound 68, 3-(1-oxo-5-((2-(3-(2-(trifluoromethoxy)phenyl)azetidin-1-yl)cyclohexyl)oxy)isoindolin-2-yl)piperidine-2,6-dione], for which, in experiment [1], the EC50 was 26 nM. Also, the “IKZF2 % Degradation @ 1 μM” value in experiment [2] amounted to 42.5%.
`O=C1CCC(N2Cc3cc(O[C@H]4CCCC[C@@H]4N4CCC4c4ccccc4)ccc3C2=O)C(=O)N1` (stereo partly drawn) [Compound 55, 3-(1-oxo-5-(((1S,2S)-2-(2-phenylazetidin-1-yl)cyclohexyl)oxy)isoindolin-2-yl)piperidine-2,6-dione]: the EC50 in experiment [1] was found to be 158 nM. In experiment [2], the “IKZF2 % Degradation @ 1 μM” value is reported as 38.1%.
Take `N#Cc1cc(Cl)ccc1C1CN([C@H]2CCC[C@@H]2Oc2ccc3c(c2)CN(C2CCC(=O)NC2=O)C3=O)C1` (mixture of isomers) [Compound 83, Rac-5-chloro-2-(1-((trans)-2-((2-(2,6-dioxopiperidin-3-yl)-1-oxoisoindolin-5-yl)oxy)cyclopentyl)azetidin-3-yl)benzonitrile]: the EC50 in experiment [1] turned out to be 36 nM. Besides, the “IKZF2 % Degradation @ 1 μM” value in experiment [2] was determined as 48.8%.
As for `O=C1CCC(N2Cc3cc(O[C@H]4CCCC[C@@H]4N4CC(c5cccc(OC(F)F)c5)C4)ccc3C2=O)C(=O)N1` (stereo partly drawn) [Compound 80, 3-(5-(((1S,2S)-2-(3-(3-(difluoromethoxy)phenyl)azetidin-1-yl)cyclohexyl)oxy)-1-oxoisoindolin-2-yl)piperidine-2,6-dione], in experiment [1], the EC50 is 8 nM. The “IKZF2 % Degradation @ 1 μM” value in experiment [2] was 76.7%.
In the same order, the values of `O=C1CCC(N2Cc3cc(O[C@@H]4CCCC[C@@H]4N4CC(O)(c5ccccc5)C4)ccc3C2=O)C(=O)N1` (mixture of isomers) [Compound 97, Rac-3-(5-(((cis)-2-(3-hydroxy-3-phenylazetidin-1-yl)cyclohexyl)oxy)-1-oxoisoindolin-2-yl)piperidine-2,6-dione] are 31 nM and less than 15%.
